# Experimental data as given in US11098056B2, “UDP glycosyltransferase inhibitors and methods of use” (GENZYME CORPORATION, priority 2018, dated 2021).
# Target: T1, UGT8 (Homo sapiens, UniProt Q16880)
# T1 construct: host or cells: OE19 cells
# T1 sequence (Q16880 21-541): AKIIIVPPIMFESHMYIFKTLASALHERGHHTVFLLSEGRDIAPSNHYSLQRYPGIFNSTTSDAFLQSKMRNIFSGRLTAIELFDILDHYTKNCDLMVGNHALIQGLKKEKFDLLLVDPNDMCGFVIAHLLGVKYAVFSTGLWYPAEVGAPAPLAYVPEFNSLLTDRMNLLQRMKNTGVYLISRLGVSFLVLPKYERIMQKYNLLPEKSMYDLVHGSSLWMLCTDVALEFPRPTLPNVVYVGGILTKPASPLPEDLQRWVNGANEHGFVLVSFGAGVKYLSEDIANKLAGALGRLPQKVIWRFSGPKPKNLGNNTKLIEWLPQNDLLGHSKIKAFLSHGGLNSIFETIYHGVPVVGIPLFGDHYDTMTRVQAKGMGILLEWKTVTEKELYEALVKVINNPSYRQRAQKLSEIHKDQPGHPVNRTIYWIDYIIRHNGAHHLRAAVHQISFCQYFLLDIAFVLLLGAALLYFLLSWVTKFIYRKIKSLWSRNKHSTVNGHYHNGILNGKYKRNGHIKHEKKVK
# Assay: In vitro sulfatide (SFT) synthesis inhibition in OE19 cells, LC-MS/MS readout
# Format: cell-based
# Conditions: 72 hr, sulfatide by LC-MS/MS, read-out: Potency range (IC50, In-vitro SFT)
# Procedure, shortened: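 OE19 cells, 2,500/well, exposed to compound dose-downs in triplicate for 72 hr at 37° C (screening at 10 μM final). Sulfatide quantified by LC-MS/MS (C8 UPLC, isocratic, negative-ion MRM) with C17 SFT internal standard; IC50 from concentration-response curves.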
row,SMILES,IC50 [µM]
1,"CC(C)NC(=O)CN1CCN(c2cc(C(F)(F)F)c3scc(C(=O)N4CCC4)c3n2)CC1 [Example 649, 2-[4-[3-(Azetidine-1-carbonyl)-7-(trifluoromethyl)thieno[3,2-b]pyridin-5-yl]piperazin-1-yl]-N-isopropyl-acetamide]",0.1 to 1
2,"CNC(=O)c1csc2c(C(F)(F)F)cc(N3CCC(OC(=O)N4CC(OC(F)F)C4)CC3)nc12 [Example 87, 1-(3-(Methylcarbamoyl)-7-(trifluoromethyl)thieno[3,2-b]pyridin-5-yl)piperidin-4-yl 3-(difluoromethoxy)azetidine-1-carboxylate]",< 0.1
3,"CNC(=O)c1csc2c(C(F)(F)F)c(Cl)c(N3CCC(OC(=O)NCC4CC4)CC3)nc12 [Example 638, [1-[6-Chloro-3-(methylcarbamoyl)-7-(trifluoromethyl)thieno[3,2-b]pyridin-5-yl]-4-piperidyl] N-(cyclopropylmethyl)carbamate]",< 0.1
4,"CNC(=O)c1csc2c(C(F)(F)F)cc(N3CCN(CC(=O)NC(C)C)C(C)(C)C3)nc12 [Example 49, 5-(4-(2-(Isopropylamino)-2-oxoethyl)-3,3-dimethylpiperazin-1-yl)-N-methyl-7-(trifluoromethyl)thieno[3,2-b]pyridine-3-carboxamide]",< 0.1
5,"CNC(=O)c1csc2c(C(F)(F)F)cc(N3CCC(NC(=O)OCCC#N)CC3)nc12 [Example 505, 2-Cyanoethyl (1-(3-(methylcarbamoyl)-7-(trifluoromethyl)thieno[3,2-b]pyridin-5-yl)piperidin-4-yl)carbamate]",< 0.1
6,"CC(C)NC(=O)c1csc2c(C(F)(F)F)cc(N3CCC(NC(=O)OC(C)(C)C)C3)nc12 (stereo not drawn) [Example 642, tert-Butyl N-[1-[3-(isopropylcarbamoyl)-7-(trifluoromethyl)thieno[3,2-b]pyridin-5-yl]pyrrolidin-3-yl]carbamate]",0.1 to 1
7,"CNC(=O)c1csc2c(C(F)(F)F)c(C)c(O[C@@H]3CCN(C(=O)OC(C)(C)C)C[C@@H]3F)nc12 (racemic) [Example 387, (+/−)-tert-Butyl cis-3-fluoro-4-((6-methyl-3-(methylcarbamoyl)-7-(trifluoromethyl)thieno[3,2-b]pyridin-5-yl)oxy)piperidine-1-carboxylate]",< 0.1
8,"CNC(=O)c1csc2c(C(F)(F)F)cc(O[C@@H]3CCN(C(=O)O[C@@H](C)COC(F)(F)F)[C@H](C)C3)nc12 [Example 175, (S)-1-(Trifluoromethoxy)propan-2-yl (2R,4R)-2-methyl-4-((3-(methylcarbamoyl)-7-(trifluoromethyl)thieno[3,2-b]pyridin-5-yl)oxy)piperidine-1-carboxylate]",< 0.1
9,"CC(C)NC(=O)c1csc2c(C(F)(F)F)cc(N3CCC(NC4CCC(C(F)(F)F)CC4)C3)nc12 (stereo not drawn) [Example 419, N-Isopropyl-7-(trifluoromethyl)-5-(3-((4-(trifluoromethyl)cyclohexyl)amino)pyrrolidin-1-yl)thieno[3,2-b]pyridine-3-carboxamide]",> 1
10,"CNC(=O)c1csc2c(C(F)(F)F)cc(N3CC4(CN(C(=O)OC(C)CC#N)C4)C3)nc12 (stereo not drawn) [Example 350, 1-Cyanopropan-2-yl 6-(3-(methylcarbamoyl)-7-(trifluoromethyl)thieno[3,2-b]pyridin-5-yl)-2,6-diazaspiro[3.3]heptane-2-carboxylate]",< 0.1
11,"CNC(=O)c1csc2c(C(F)(F)F)cc(OC3CCN(C(=O)OCCOC(F)(F)F)CC3)nc12 [Example 171, 2-(Trifluoromethoxy)ethyl 4-((3-(methylcarbamoyl)-7-(trifluoromethyl)thieno[3,2-b]pyridin-5-yl)oxy)piperidine-1-carboxylate]",< 0.1
12,"COC(=O)c1csc2c(C(F)(F)F)cc(N3CCC(OC(=O)NCC4CC4)CC3)nc12 [Example 428, Methyl 5-(4-(((cyclopropylmethyl)carbamoyl)oxy)piperidin-1-yl)-7-(trifluoromethyl)thieno[3,2-b]pyridine-3-carboxylate]",< 0.1
13,"CNC(=O)c1csc2c(C(F)(F)F)cc(N3CCC(OCCN4CCC(F)(F)C4)CC3)nc12 [Example 361, 5-(4-(2-(3,3-Difluoropyrrolidin-1-yl)ethoxy)piperidin-1-yl)-N-methyl-7-(trifluoromethyl)thieno[3,2-b]pyridine-3-carboxamide]",< 0.1
14,"CNC(=O)c1csc2c(C(F)(F)F)c(C)c(OC3CCN(C(=O)OCCOC(F)(F)F)CC3)nc12 [Example 390, 2-(Trifluoromethoxy)ethyl 4-((6-methyl-3-(methylcarbamoyl)-7-(trifluoromethyl)thieno[3,2-b]pyridin-5-yl)oxy)piperidine-1-carboxylate]",< 0.1
15,"CNC(=O)c1c(C)sc2c(C(F)(F)F)cc(N3CCC(OC(=O)NCC4CC4)CC3)nc12 [Example 415, 1-(2-Methyl-3-(methylcarbamoyl)-7-(trifluoromethyl)thieno[3,2-b]pyridin-5-yl)piperidin-4-yl (cyclopropylmethyl)carbamate]",< 0.1
16,"CNC(=O)c1csc2c(C(F)(F)F)cc(O[C@@H]3CCN(C(=O)OCCOC(F)(F)F)[C@H](C)C3)nc12 (racemic) [Example 371, (+/−)-cis-2-(Trifluoromethoxy)ethyl-2-methyl-4-((3-(methylcarbamoyl)-7-(trifluoromethyl)thieno[3,2-b]pyridin-5-yl)oxy)piperidine-1-carboxylate]",< 0.1
17,"CNC(=O)c1c(C)sc2c(C(F)(F)F)cc(N3CCN(CC(=O)NC(C)C)CC3)nc12 [Example 408, 5-(4-(2-(Isopropylamino)-2-oxoethyl)piperazin-1-yl)-N,2-dimethyl-7-(trifluoromethyl)thieno[3,2-b]pyridine-3-carboxamide]",0.1 to 1
18,"CNC(=O)c1csc2c(C(F)(F)F)cc(O[C@@H]3CCN(C(=O)OC(C)(C)C)[C@H](C)C3)nc12 [Example 373, tert-Butyl (2R,4R)-2-methyl-4-((3-(methylcarbamoyl)-7-(trifluoromethyl)thieno[3,2-b]pyridin-5-yl)oxy)piperidine-1-carboxylate]",< 0.1
19,"CNC(=O)c1csc2c(C(F)(F)F)c(C)c(O[C@H]3CCN(C(=O)O[C@@H](C)COC(F)(F)F)C[C@H]3F)nc12 [Example 183, (S)-1-(Trifluoromethoxy)propan-2-yl (3R,4S)-3-fluoro-4-((6-methyl-3-(methylcarbamoyl)-7-(trifluoromethyl)thieno[3,2-b]pyridin-5-yl)oxy)piperidine-1-carboxylate]",< 0.1
20,"CNC(=O)c1csc2c(C(F)(F)F)cc(N3CCC(OC(=O)N4CC5(CCN5C)C4)CC3)nc12 [Example 806, 1-(3-(Methylcarbamoyl)-7-(trifluoromethyl)thieno[3,2-b]pyridin-5-yl)piperidin-4-yl 1-methyl-1,6-diazaspiro[3.3]heptane-6-carboxylate]",< 0.1
21,"CNC(=O)c1csc2c(C(F)(F)F)cc(CC3CCN(C(=O)OCCOC(F)(F)F)CC3)nc12 [Example 632, 2-(Trifluoromethoxy)ethyl 4-((3-(methylcarbamoyl)-7-(trifluoromethyl)thieno[3,2-b]pyridin-5-yl)methyl)piperidine-1-carboxylate]",< 0.1
22,"CNC(=O)c1csc2c(C(F)(F)F)cc(OC3CC4(C3)CN(C(=O)O[C@H](C)C3CC3)C4)nc12 [Example 204, (R)-1-Cyclopropylethyl 6-((3-(methylcarbamoyl)-7-(trifluoromethyl)thieno[3,2-b]pyridin-5-yl)oxy)-2-azaspiro[3.3]heptane-2-carboxylate]",< 0.1
23,"CNC(=O)c1csc2c(C(F)(F)F)cc(O[C@H]3CCN(C(=O)OCCOC(F)(F)F)C3)nc12 [Example 600, 2-(Trifluoromethoxy)ethyl (S)-3-((3-(methylcarbamoyl)-7-(trifluoromethyl)thieno[3,2-b]pyridin-5-yl)oxy)pyrrolidine-1-carboxylate]",< 0.1
24,"CNC(=O)c1csc2c(C(F)(F)F)cc(N3CCC(OC(=O)N4CC(OC(F)(F)F)C4)CC3)nc12 [Example 88, 1-(3-(Methylcarbamoyl)-7-(trifluoromethyl)thieno[3,2-b]pyridin-5-yl)piperidin-4-yl 3-(trifluoromethoxy)azetidine-1-carboxylate]",< 0.1
25,"CNC(=O)c1csc2c(C(F)(F)F)cc(O[C@@H]3CCN(C(=O)OCCOC(F)(F)F)[C@@H](C)C3)nc12 (racemic) [Example 369, (+/−)-trans-2-(Trifluoromethoxy)ethyl-2-methyl-4-((3-(methylcarbamoyl)-7-(trifluoromethyl)thieno[3,2-b]pyridin-5-yl)oxy)piperidine-1-carboxylate]",< 0.1
26,"CNC(=O)c1csc2c(C(F)(F)F)c(C)c(O[C@@H]3CCN(C(=O)OCCOC(F)(F)F)C[C@@H]3F)nc12 [Example 180, 2-(Trifluoromethoxy)ethyl (3S,4R)-3-fluoro-4-((6-methyl-3-(methylcarbamoyl)-7-(trifluoromethyl)thieno[3,2-b]pyridin-5-yl)oxy)piperidine-1-carboxylate]",< 0.1
27,CNC(=O)c1csc2c(C(F)(F)F)cc(N3CC[C@H](OC(=O)N[C@@H](C)COC(F)(F)F)[C@@H](F)C3)nc12 (racemic) [Example 418],< 0.1
